Results on four compounds are retold here after paper PMC8832557 (Cell Metabolism, 2022).

Usually Kd stands for the equilibrium constant for the complex coming apart. Higher therefore signals lower affinity.

The target of assay [1] is T1, ACE2 (angiotensin-I converting enzyme 2) (Homo sapiens, UniProt Q9BYF1). As to the kind of experiment: SPR. Type of assay: binding.
Assay [2] concerns the target T1, ACE2 (angiotensin-I converting enzyme 2). The assay can be described thus: SPR. In kind it is binding. The source holds these as a separate data set.

Read-outs that look alike come from different tables or passages of the source.

T1 sequence (Q9BYF1 18-805): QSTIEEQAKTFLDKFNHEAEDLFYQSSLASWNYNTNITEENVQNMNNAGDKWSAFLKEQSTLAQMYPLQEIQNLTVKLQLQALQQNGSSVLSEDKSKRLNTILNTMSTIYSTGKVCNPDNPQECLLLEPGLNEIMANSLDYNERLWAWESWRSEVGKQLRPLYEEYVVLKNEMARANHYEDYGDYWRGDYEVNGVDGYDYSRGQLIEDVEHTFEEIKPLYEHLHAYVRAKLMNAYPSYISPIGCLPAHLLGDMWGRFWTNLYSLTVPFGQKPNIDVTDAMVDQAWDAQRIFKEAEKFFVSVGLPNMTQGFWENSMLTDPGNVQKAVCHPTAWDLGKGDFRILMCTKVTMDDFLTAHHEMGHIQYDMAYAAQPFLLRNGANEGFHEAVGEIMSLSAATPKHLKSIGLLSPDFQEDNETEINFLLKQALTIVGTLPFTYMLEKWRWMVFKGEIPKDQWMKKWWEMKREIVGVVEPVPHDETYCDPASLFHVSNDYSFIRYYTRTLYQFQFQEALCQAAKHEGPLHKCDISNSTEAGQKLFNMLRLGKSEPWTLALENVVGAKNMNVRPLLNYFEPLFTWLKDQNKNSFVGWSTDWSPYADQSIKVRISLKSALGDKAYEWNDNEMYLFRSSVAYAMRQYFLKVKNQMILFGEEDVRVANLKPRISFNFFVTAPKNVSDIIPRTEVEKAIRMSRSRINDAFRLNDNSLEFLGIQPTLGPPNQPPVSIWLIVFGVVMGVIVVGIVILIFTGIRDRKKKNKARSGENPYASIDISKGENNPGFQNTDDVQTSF

Turning to `N=C(N)c1ccc(/N=N/Nc2ccc(C(=N)N)cc2)cc1` [DIZE, diminazene aceturate], binding in assay [1] was put at a Kd of 4.9 µM.
In turn, `C[C@]1(OC(=O)/C=C/c2ccccc2)C[C@@H](O)[C@]2(O)C=CO[C@@H](O[C@@H]3O[C@H](CO)[C@@H](O)[C@H](O)[C@H]3O)[C@@H]21` [Har, harpagoside] yielded a dissociation constant Kd in assay [2] of 86.1 µM.
Still for that read-out and setting: to `Cc1ccc(NC(=O)c2ccc(CN3CCN(C)CC3)cc2)cc1Nc1nccc(-c2cccnc2)n1` [Ima, imatinib] belongs 12.7 µM.
On the same count and under the same terms, to `CC(=O)/N=c1/sc(S(N)(=O)=O)nn1C` [Met, methazolamide] belongs 70 µM.
